What was measured:
[1] = test system: corneal haze in rabbits produced with −9.0 diopter PRK; assay: Corneal haze after −9.0 diopter PRK in rabbits: efficacy (slit-lamp haze score, αSMA immunofluorescence); assay type: in vivo, rabbit; conditions: for Haze score: at 4-months after PRK, Fantes scale, single topical SAHA 25 μM 5 min or MMC 0.02% 1 min, BSS 2.7±0.4; for post-PRK corneal haze compared to no-drug treated corneas: single topical application, p<0.001
From the text: Photorefractive keratectomy was used to produce corneal haze in rabbits by performing −9.0 diopter ablation with the Summit Apex excimer laser (Model: SVS APEX Plus ER; Alcon, Ft. Worth, Tex.) as reported previously. Briefly, the rabbits were anesthetized and local anesthesia of the cornea was achieved through the application of topical ophthalmic 0.5% proparacaine hydrochloride (Alcon, Fort Worth, Tex.). A wire lid speculum was placed and corneal epithelium was removed by gentle scraping with surgical Beaver blade #64 (BD Biosciences, Franklin Lakes, N.J.). […] Only one eye of each animal was used for experimentation.
A 10 mM stock solution of SAHA (Cayman Chemical Company, Ann Arbor, Mich., USA) was prepared using dimethyl sulfoxide (DMSO), and diluted to 25 μM with balanced salt solution (BSS) eye drops (Alcon). For vehicle control, the same volume of DMSO was diluted with BSS. […] After PRK, rabbits were divided into 3 groups: Group-1 received a single topical application of SAHA (25 μM) for 5 minutes (n=15), Group-2 received a single topical application of MMC (0.02%) for 1 minute (n=15) and Group-3 received a single topical application of vehicle for 5 minutes (n=15). Thereafter, eyes were washed profusely with BSS. The contralateral eye served as naive control. All rabbits received clinical eye examination.
Rabbits from each group were euthanatized 3-days (n=3), 1-month (n=6), and 4-months (n=6) after PRK. Corneas were snap frozen, sectioned (7 mm), and stored at −80° C. Immunofluorescence was used to detect myofibroblast marker αSMA using monoclonal antibody (M0851; Dako, Calif.). […] Sections were viewed and photographed under a fluorescence microscope (Leica, Deerfield, Ill.) equipped with a digital camera system (SpotCam RT KE; Diagnostic Instruments, MI).

[2] = test system: rabbit corneal endothelial cells and keratocytes after −9D PRK; assay: Rabbit PRK model: in vivo safety (specular microscopy, DAPI, TUNEL)
Experimental: Briefly, corneal haze in rabbits was produced with −9.0 diopter PRK. A single application of SAHA (25 μM) or MMC (0.02%) was applied topically immediately after PRK. Effects of the two drugs were analyzed by slit-lamp microscope, specular microscope, TUNEL assay, and immunofluorescence.
(§1) A 10 mM stock solution of SAHA (Cayman Chemical Company, Ann Arbor, Mich., USA) was prepared using dimethyl sulfoxide (DMSO), and diluted to 25 μM with balanced salt solution (BSS) eye drops (Alcon). For vehicle control, the same volume of DMSO was diluted with BSS. The 0.02% Mitomycin C solution was prepared at the Harry S. Truman VA Hospital Pharmacy, Columbia, Mo. using 5 mg/ml powder (Accord Healthcare, Inc., Durham, N.C., USA) diluted with sterile normal saline. This solution was stable for 1 week at room temperature but was used within 48 hours after preparation. After PRK, rabbits were divided into 3 groups: Group-1 received a single topical application of SAHA (25 μM) for 5 minutes (n=15), Group-2 received a single topical application of MMC (0.02%) for 1 minute (n=15) and Group-3 received a single topical application of vehicle for 5 minutes (n=15). Thereafter, eyes were washed profusely with BSS. The contralateral eye served as naive control. All rabbits received clinical eye examination.
Slit-lamp (SL15, Kowa, Japan), stereo (MZ16F, Leica, Switzerland) and specular (NSP-8800, Konan, Japan) microscopes were used to evaluate ocular health, corneal haze, and corneal endothelial cells in anesthetized animals. Grading of clinical corneal haze was done using Fantes scale by three researchers (AS, MW and SG) in a masked manner. High performance digital imaging system (VK2; Kowa Tokyo, Japan) was used for corneal image analysis.
Rabbits from each group were euthanatized 3-days (n=3), 1-month (n=6), and 4-months (n=6) after PRK. Corneas were snap frozen, sectioned ([…]), and stored at −80° C. Immunofluorescence was used to detect myofibroblast marker αSMA using monoclonal antibody (M0851; Dako, Calif.). TUNEL assay (ApopTag, 57165; Billerica, Mass.) detected apoptosis and DAPI-stained nuclei determined cellular density. Sections were viewed and photographed under a fluorescence microscope (Leica, Deerfield, Ill.) equipped with a digital camera system (SpotCam RT KE; Diagnostic Instruments, MI).
Stained proteins in corneal sections were quantified using Image J software in six randomly selected areas. Standard error means were calculated. One-way ANOVA and Wilcoxon rank sum test were used for statistical analysis. The p value <0.05 was considered significant.

[3] = Stability of 0.02% Mitomycin C solution; assay type: physicochemical; conditions: 0.02% solution in sterile normal saline, room temperature
Experimental: as §1

[4] = test system: rabbit model of glaucoma filtration surgery; assay: Rabbit model of glaucoma filtration surgery (GFS): clinical evaluation of bleb, vascularity, IOP and tolerability; assay type: in vivo; conditions: for bleb appearance (biomicroscopy): day 3, 7, 14 after GFS, compared to flat and scarred blebs in no treatment control; for bleb area compared to untreated controls / bleb length compared to untreated controls: day 3, 7 and 14 after GFS; for bleb area compared to untreated controls: SAHA p<0.05, MMC p<0.01; for bleb length compared to untreated controls: p<0.001; for bleb vascularity score / intraocular pressure: day 7 and day 14 after GFS; for bleb vascularity score: versus no treatment control; for intraocular pressure: versus no-treatment control
Experimental: (§2) Briefly, a rabbit model of glaucoma filtration surgery (GFS) was used. Rabbits underwent GFS received Balanced Salt Solution (BSS) or SAHA (50 μM) or mitomycin C (MMC; 0.04% (w/v)). Clinical scores of intraocular pressure (TOP), bleb vascularity and slit lamp examination were performed. On postoperative day 14, rabbits were sacrificed and the bleb tissues were collected for evaluation of tissue fibrosis with H&E, Masson trichrome (MT), α-smooth muscle actin (α-SMA), and F-actin staining. Further, SAHA-mediated acetylation of histones in corneal fibroblasts and conjunctiva were determined by western blot analysis.
A 10 mM stock solution of SAHA (Cayman Chemical Company, Ann Arbor, Mich., USA) was prepared by dissolving in dimethyl sulfoxide (DMSO) and then further diluted to 50 μM with balanced salt solution (BSS) eye drops (Alcon). For vehicle control, the same volume of DMSO was diluted with BSS. The 0.04% MMC stock solution was prepared in BSS and 0.02% final dose of MMC was given to rabbits. The rabbits were divided into three treatment groups. Groups I rabbits received 100 μl subconjunctival injection of vehicle 30 minutes before the GFS surgery and group II rabbits received 100 μl subconjunctival injection of 50 μM SAHA solution 30 minutes before GFS. Group III rabbits were injected with 100 μl subconjunctival solution of 0.02% MMC 30 minutes before surgery.
Clinical evaluation was performed to check the intraocular pressure (TOP), general appearance and vascularity of the bleb. All these clinical parameters were recorded before the surgery to obtain the baseline values and on days 3, 5, 7, 10 and 14 after surgery. To measure TOP, tonometry was performed using an applanation tonometer (Tono-pen) with animals under topical anesthesia. Bleb's size was graded by measuring its width and length. Bleb vascularity was graded as 0=avascular; 1=normal vascularity; 2=hyperemic; 3=very hyperemic. Anterior chamber inflammation was assessed by slit lamp examination and graded 0=no inflammation; 1=cells present; 2=fibrin formation; 3=hypopyon present.
(§3) The results are expressed as mean±SEM. The data for bleb length, area, vascularity and IOP were analyzed by two way ANOVA and Bonferroni test using GraphPad Prism 6.0 (GraphPad Software, Inc., La Jolla, Calif.) and p<0.05 was considered to be statistical significant. The immunostaining data was analyzed using a t-test.

[5] = test system: site of sclerotomy in rabbit eyes after glaucoma filtration surgery; assay type: in vivo; conditions: for DAPI nuclear staining of conjunctival epithelium at site of sclerostomy: rabbit, in vivo
Experimental: as §2
On postoperative day 14, rabbits were humanely euthanized with pentobarbital (150 mg/kg) under general anesthesia. The eyes were enucleated together with the conjunctiva to preserve the bleb and snap frozen in optimal cutting temperature fluid. The tissues were sectioned and stained with hematoxylin and eosin. Masson's trichrome staining was performed to stain collagen. Immunofluorescence staining for f-actin (a marker for activated fibroblasts and myofibroblasts) was performed using Alexa Fluor® 594-conjugated phalloidin (1:40 dilution, A12381, Invitrogen Inc., Carlsbad, Calif.). Immunofluorescence staining for α-smooth muscle actin (αSMA), a marker for myofibroblasts, was performed with mouse monoclonal primary αSMA antibody (1:100 dilution, M0851; Dako, Carpinteria, Calif.). Tissue sections were incubated with 2% bovine serum albumin for 30 minutes at room temperature and then with αSMA monoclonal antibody for 90 minutes. For detection of the primary antibody, the sections were exposed to Alexa 488 goat anti-mouse IgG secondary antibody (1:500 dilution, A11001; Invitrogen Inc.) for 1 hour. The tissue sections at the site of sclerotomy and the sections on every sixth tissue slide on the either side of the sclerotomy were stained for f-actin and αSMA. After completion of immunostaining, tissue sections were mounted in medium containing DAPI (Vectashield; Vector Laboratories, Inc. Burlingame, Calif.), viewed, and photographed under a fluorescence microscope (Leica, Deerfield, Ill.) equipped with a digital camera system (SpotCam RT KE; Diagnostic Instruments, Sterling, Mich.). The stained areas in the imaged slides were quantified using Image J software.
as §3

[6] = test system: human corneal endothelial cells; conditions: cited from earlier work
[7] = in vivo; cited from earlier work
[8] = test system: cultured corneal fibroblasts; conditions: 50 μM or higher dose of SAHA; earlier studies; cited from earlier work
[9] = test system: acetylation of Histone H3 and H4 in rabbit conjunctiva tissue; assay: Western blot of acetylated histones in rabbit conjunctiva after subconjunctival injection; assay type: in vivo; conditions: 100 μl subconjunctival 50 μM SAHA
Experimental: (§4) Rabbits were received 100 μl subconjunctival injection of 50 μM SAHA. Cell lysates were prepared from human corneal fibroblast cells treated with SAHA (2.5 μM) at 0, 2, 4, 6, 16 and 24 hours. Rabbit conjunctival tissues were harvested at 0, 2, 6 and 24 hour time points. Cell and tissue lysates were analyzed by western blotting using anti-acetyl Histone H3, anti-acetyl histone H4 (Cell Signaling, Beverly, Mass., USA) and (3-actin (Santa Cruz biotechnology Inc., Dallas, Tex., USA) antibodies respectively. All western blots for each protein were used 3 rabbit tissues and repeated at least two times. Digital quantification of western blots was performed using NIH Image J software and Image Studio software Version 5.2

[10] = test system: cultured rabbit, equine, canine and human corneal fibroblasts; conditions: previous studies from the lab; cited from earlier work
[11] = test system: acetylation of Histone H3 and H4 in human corneal fibroblast cells; assay: Western blot of acetylated histones in human corneal fibroblast cells; assay type: cell-based; conditions: SAHA 2.5 μM
Experimental: as §4

[12] = day 14 after GFS, versus no-treatment control
[13] = prophylactic MMC 0.02%, 10-50 seconds, nonrandomized controlled trial

CO[C@@]12[C@H](COC(N)=O)C3=C(C(=O)C(C)=C(N)C3=O)N1C[C@@H]1N[C@@H]12 [MMC, mitomycin C]
Haze score [1]: 0.85±0.15 | post-PRK corneal haze compared to no-drug treated corneas [1]: significantly decreased | corneal endothelial cell phenotype and density ([2]; 1-month after PRK): significantly compromised endothelial cell phenotype and density | apoptosis (TUNEL+ cells in stroma and endothelium) ([2]; 1-month and 4-months): many TUNEL+ cells in the stroma and endothelium | keratocyte number and density in stroma (DAPI-staining) ([2]; 1-month and 4-months post-PRK): significant keratocyte loss | corneal endothelial cell phenotype and density ([2]; 4-months after PRK): still had compromised endothelial cells | apoptosis (TUNEL assay) ([2]; corneas collected at 3-days): significant apoptosis in epithelial and keratocyte cells | stability of solution [3]: 1 week | bleb appearance (biomicroscopy) [4]: elevated blebs but these blebs had a thin, avascular and cystic appearance | bleb area compared to untreated controls [4]: significantly higher | bleb length compared to untreated controls [4]: significantly higher | bleb vascularity score [4]: very robust decrease | intraocular pressure [4]: lower TOP compared to the no-treatment control eyes but the results were not statistically significant | bleb vascularity by day 14 ([4]; day 14 after GFS): completely avascular | ocular adverse findings on clinical evaluation ([4]; rabbit eyes after GFS, SAHA 50 μM or MMC 0.02% subconjunctival): corneal neovascularization and opacity | f-actin stained area (activated fibroblasts and myofibroblasts) [5, 12]: very robust decrease | αSMA stained area (myofibroblasts) [5, 12]: very robust decrease | DAPI nuclear staining of conjunctival epithelium at site of sclerostomy [5]: discontinuous and highly sparse DAPI nuclear staining | qualitative morphometric parameters or quantitative endothelial cell density ([6]; 0.02% MMC topically for 12 seconds and 40 seconds following PRK, other studies): did not have a significant effect | corneal endothelial cells [6, 13]: significant loss of corneal endothelial cells | haze formation after PRK [6, 13]: inhibited haze formation

O=C(CCCCCCC(=O)Nc1ccccc1)NO [SAHA, suberoylanilide hydroxamic acid]
plasma half-life [7]: short | Haze score [1]: 0.9±0.1 | post-PRK corneal haze compared to no-drug treated corneas [1]: significantly decreased | cellular viability of cultured corneal fibroblasts [8]: did not decrease cellular viability | time of maximum histone H3 and H4 acetylation [9]: 6 h | acetylation status of histone H3 and H4 ([9]; 0, 2, 6 and 24 hour): increase the acetylation status of histone H3 and H4 | apoptosis (TUNEL assay) ([2]; rabbit, in vivo): did not induce apoptosis in any cell type | keratocyte number and density in stroma (DAPI-staining) ([2]; rabbit, in vivo): did not reduce number or density of keratocytes | differentiation of corneal fibroblasts to myofibroblasts [10]: capable of inhibiting differentiation | bleb appearance (biomicroscopy) [4]: transparent and elevated blebs | bleb area compared to untreated controls [4]: significantly higher | bleb length compared to untreated controls [4]: significantly higher | bleb vascularity score [4]: significantly (p<0.01) attenuated | intraocular pressure [4]: lower TOP compared to the no-treatment control eyes but the results were not statistically significant | time of maximum histone H3 and H4 acetylation [11]: 6 h | acetylation status of histone H3 and H4 ([11]; 0, 2, 4, 6, 16 and 24 hours): increase the acetylation status of histone H3 and H4 | Masson trichrome staining: collagen deposits at site of sclerotomy [5, 12]: less collagen deposits | f-actin stained area (activated fibroblasts and myofibroblasts) [5, 12]: significant decrease | αSMA stained area (myofibroblasts) [5, 12]: significant decrease | H&E staining: fibrous deposit at site of sclerotomy ([5]; day 14 after GFS, control densely packed with fibrous tissue): mild fibrous deposit and a loosely arranged conjunctival tissue | DAPI nuclear staining of conjunctival epithelium at site of sclerostomy [5]: continuous and uniform conjunctival epithelium

Reference: US20200030263A1, “METHODS AND COMPOSITIONS FOR PROMOTING WOUND HEALING WITH DECREASED SCAR FORMATION AFTER GLAUCOMA FILTRATION SURGERY” (United States Government as Represented by the Department …, priority 2017, published 2020)
